Among the data in PMC12040169 (PLOS Biology, 2025) are viability values, retold here.

The series can be described thus: in vitro. The note with it: human, hela cells, % viability.

Broadly, the viability is a read-out of living cells in per cent, often relative to untreated cells. Turning to `O=C(/C=C/c1cccnc1)Nc1c(F)cc(F)cc1OC1CCNCC1` [CBK050324T], the viability at 28.5 h, 10 µM stood at 90.5%.
Turning to `c1cnc(N2CCN(CCN3CCOCC3)CC2)c(OCCN2CCOCC2)n1` [CBK082899], the viability at 28.5 h, 10 µM amounted to 105%.
The value for `COc1cc(CNC2CCCCCC2)c([N+](=O)[O-])cc1OC` [CBK262194] was 96.4%.
Then `CC1CCCN(CC(C)(C)NC(=O)c2cc(C(F)(F)F)nn2C)C1` (centres unmarked) [CBK281598], with 87.9%; and `Cc1ccccc1-c1ccccc1CC1(C(N)=O)CCN(C(=O)Cc2ccccc2)CC1` [CBK285724], with 106%.
As for `Cc1ccc(N(CC(=O)NCC2CCCO2)S(C)(=O)=O)cc1` (centres unmarked) [CBK058709], the viability at 28.5 h, 10 µM was determined as 88.1%.
As to `CC(C)(c1ccccc1)c1ccc(OCC(=O)Nc2cccc(C(=O)O)c2)cc1` [CBK266014], the viability at 28.5 h, 10 µM turned out to be 102%.
Take `CS(=O)(=O)Nc1ncc(Br)cc1C(=O)NCc1ccc(F)cc1` [CBK076538]: the viability at 28.5 h, 10 µM was 89.6%.
Turning to `N[C@H]1C[C@H]2C(=O)NC[C@@H](CCC(=O)NCc3cccs3)N2C1` [CBK289005], the viability at 28.5 h, 10 µM turned out to be 86.6%.
The value for `Cc1ccsc1CN1CCOCC1` [CBK026429] was 110%; that for `COc1ccc(Cl)cc1N1CCN(CCCn2c(=O)[nH]c3ccccc32)CC1` [CBK138338] was 95.7%.
Then `Cc1cnc(NCC2(CO)CCOCC2)nc1N(C)C` [CBK307026], with 104%.
Then `COc1ccc(C(=O)Nc2ccccc2N2CCNCC2)cc1` [CBK029447T], with 107%; and `COc1ncc(-c2nccnc2NCC(C)O)c(OC)n1` (centres unmarked) [CBK036970], with 105%; and `Cc1cccc(=O)n1CCCn1cnc2nccnc2c1=O` [CBK307186], with 116%.
For the molecule `COc1cc(Br)c(OC)c(C(=O)N(C)Cc2cnn(C)c2)c1` [CBK244011], the viability at 28.5 h, 10 µM turned out to be 102%.
Then `CCNc1cncc(-c2cncc(OC)c2)n1` [CBK065366], with 91.9%.
Then `Cc1nc2ccccc2c(C)c1CC(=O)N(C)Cc1cnn(C)c1` [CBK304895], with 96.1%.
Then `C=C(C)Cn1nc(C)c(CN(C)CCN2CCCCC2)c1C` [CBK282483], with 88.7%; and `CC(C)(C)OC(=O)C1(NC(=O)Cc2cn3ccccc3n2)CCCC1` [CBK305500], with 95.9%; and `Cc1cc(C)nc(NCc2cnn(C)c2C)n1` [CBK306276], with 88.1%.
For `COc1cc2c(cc1NC(=O)c1ccc(C)c([N+](=O)[O-])c1)oc1ccccc12` [CBK263411], the viability at 28.5 h, 10 µM was 91.9%.
The value for `O=C(Cn1nc(-c2cc3c(s2)CCC3)oc1=O)N1CCCC1` [CBK284712] was 90.3%; that for `CC(C)CNc1ccc(-c2cccc(N(C)C)c2)cn1` [CBK037603] was 76.9%; that for `COc1cccc(C(=O)Nc2nc(-c3ccc(C(C)C)cc3)cs2)c1` [CBK101110] was 87%.
The value for `CC(C)C(CCC(=O)Nc1ccccc1[N+](=O)[O-])C(=O)O` (centres unmarked) [CBK268356] was 86.3%; that for `O=S(=O)(CC(F)(F)F)Nc1cccc(-c2nnn[nH]2)c1` [CBK154272] was 83.9%; that for `O=C(O)c1ccc(CN2CCC[C@H]2c2nc(-c3ccc(F)cn3)no2)cc1` [CBK288896] was 96.9%.
Then `O=S(=O)(Nc1nccnc1-c1cccs1)C1CC1` [CBK050764], with 93.9%.
With `COc1ccc([N+](=O)[O-])cc1Nc1nc(-c2ccccc2)nc2ccccc12` [CBK265913], the viability at 28.5 h, 10 µM amounted to 95.4%.
`CCCCN(C(=O)C(F)(F)c1ccccc1)c1c(N)n(CCC)c(=O)[nH]c1=O` [CBK297769]: the viability at 28.5 h, 10 µM came to 91.4%.
The value for `COc1ccc(OC)c(C(C)NC(=O)C2CCN(CCc3cccs3)CC2)c1` (centres unmarked) [CBK148766] was 98.8%.
